Experimental data published in patent publication US10112899B2 (ViiV HEALTHCARE UK LIMITED, priority 2014, dated 2018).

system: HIV in the HTLV-1 transformed cell line MT-4; test: organism not typed; type: cell-based; details: MT4, 96 h, MT-4 cells; luciferase/cell titer glo readout after 96 hours; 10 point dose response

| Compound | IC50 |
| --- | --- |
| Cc1ccc(-c2c(C)c3c(c(C)c2[C@H](OC(C)(C)C)C(=O)O)CN(C(=O)c2ccc(F)c(C)c2)C3)cc1 [Example 246, (S)-2-(tert-butoxy)-2-(2-(4-fluoro-3-methylbenzoyl)-4,7-dimethyl-6-(p-tolyl)isoindolin-5-yl)acetic acid] | 5 nM |
| Cc1ccc(-c2c(C)c3c(c(C)c2[C@H](OC(C)(C)C)C(=O)O)CN(C(=O)c2ccc(F)cc2F)C3)cc1 [Example 247, (S)-2-(tert-butoxy)-2-(2-(2,4-difluorobenzol)-4,7-dimethyl-6-(p-tolyl)isoindolin-5-yl)acetic acid] | 5 nM |
| COc1ccc(F)c(C(=O)N2Cc3c(C)c(-c4ccc(C)cc4)c([C@H](OC(C)(C)C)C(=O)O)c(C)c3C2)c1 [Example 248, (S)-2-(tert-butoxy)-2-(2-(2-fluoro-5-methoxybenzoyl)-4,7-dimethyl-6-(p-tolyl)isoindolin-5-yl)acetic acid] | 5 nM |
| COc1ccc(C)c(C(=O)N2Cc3c(C)c(-c4ccc(C)cc4)c([C@H](OC(C)(C)C)C(=O)O)c(C)c3C2)c1 [Example 249, (S)-2-(tert-butoxy)-2-(2-(5-methoxy-2-methylbenzoyl)-4,7-dimethyl-6-(p-tolyl)isoindolin-5-yl)acetic acid] | 5 nM |
| COc1ccc(C)cc1C(=O)N1Cc2c(C)c(-c3ccc(C)cc3)c([C@H](OC(C)(C)C)C(=O)O)c(C)c2C1 [Example 250, (S)-2-(tert-butoxy)-2-(2-(2-methoxy-5-methylbenzoyl)-4,7-dimethyl-6-(p-tolyl)isoindolin-5-yl)acetic acid] | 4 nM |
| COc1cc(C(=O)N2Cc3c(C)c(-c4ccc(C)cc4)c([C@H](OC(C)(C)C)C(=O)O)c(C)c3C2)ccc1F [Example 251, (S)-2-(tert-butoxy)-2-(2-(4-fluoro-3-methoxybenzoyl)-4,7-dimethyl-6-(p-tolyl)isoindolin-5-yl)acetic acid] | 3 nM |
| Cc1ccc(-c2c(C)c3c(c(C)c2[C@H](OC(C)(C)C)C(=O)O)CN(C(=O)c2ccc(F)c(Cl)c2)C3)cc1 [Example 252, (S)-2-(tert-butoxy)-2-(2-(3-chloro-4-fluorobenzoyl)-4,7-dimethyl-6-(p-tolyl)isoindolin-5-yl)acetic acid] | 4 nM |
| COc1cccc(C(=O)N2Cc3c(C)c(-c4ccc(C)cc4)c([C@H](OC(C)(C)C)C(=O)O)c(C)c3C2)c1F [Example 253, (S)-2-(tert-butoxy)-2-(2-(2-fluoro-3-methoxybenzoyl)-4,7-dimethyl-6-(p-tolyl)isoindolin-5-yl)acetic acid] | 12 nM |
| Cc1ccc(-c2c(C)c3c(c(C)c2[C@H](OC(C)(C)C)C(=O)O)CN(C(=O)c2ccc(F)cc2)C3)cc1 [Example 254, (S)-2-(tert-butoxy)-2-(2-(4-fluorobenzoyl)-4,7-dimethyl-6-(p-tolyl)isoindolin-5-yl)acetic acid] | 4 nM |
| Cc1ccc(-c2c(C)c3c(c(C)c2[C@H](OC(C)(C)C)C(=O)O)CN(C(=O)c2ccc4c(c2)OCCO4)C3)cc1 [Example 255, (S)-2-(tert-butoxy)-2-(2-(2,3-dihydrobenzo[b][1,4]dioxine-6-carbonyl)-4,7-dimethyl-6-(p-tolyl)isoindolin-5-yl)acetic acid] | 13 nM |
| Cc1ccc(-c2c(C)c3c(c(C)c2[C@H](OC(C)(C)C)C(=O)O)CN(C(=O)c2ccc4c(c2)B(O)OC4)C3)cc1 [Example 256, (S)-2-(tert-butoxy)-2-(2-(1-hydroxy-1,3-dihydrobenzo[c][1,2]oxaborole-6-carbonyl)-4,7-dimethyl-6-(p-tolyl)isoindolin-5-yl)acetic acid] | 740 nM |
| Cc1ccc(-c2c(C)c3c(c(C)c2[C@H](OC(C)(C)C)C(=O)O)CN(C(=O)c2cccc(B(O)O)c2)C3)cc1 [Example 257, (S)-2-(2-(3-boronobenzoyl)-4,7-dimethyl-6-(p-tolyl)isoindolin-5-yl)-2-(tert-butoxy)acetic acid] | 134 nM |
| COc1cccc(C(=O)N2Cc3c(C)c(-c4ccc(C)cc4)c([C@H](OC(C)(C)C)C(=O)O)c(C)c3C2)c1C [Example 258, (S)-2-(tert-butoxy)-2-(2-(3-methoxy-2-methylbenzoyl)-4,7-dimethyl-6-(p-tolyl)isoindolin-5-yl)acetic acid] | 15 nM |
| Cc1ccc(-c2c(C)c3c(c(C)c2[C@H](OC(C)(C)C)C(=O)O)CN(C(=O)c2cccnc2C)C3)cc1 [Example 259, (S)-2-(tert-butoxy)-2-(4,7-dimethyl-2-(2-methylnicotinoyl)-6-(p-tolyl)isoindolin-5-yl)acetic acid] | 20 nM |
| Cc1ccc(-c2c(C)c3c(c(C)c2[C@H](OC(C)(C)C)C(=O)O)CN(C(=O)c2cnccc2C)C3)cc1 [Example 260, (S)-2-(tert-butoxy)-2-(4,7-dimethyl-2-(4-methylnicotinoyl)-6-(p-tolyl)isoindolin-5-yl)acetic acid] | 15 nM |
| Cc1ccc(-c2c(C)c3c(c(C)c2[C@H](OC(C)(C)C)C(=O)O)CN(C(=O)c2ccc(F)c(F)c2)C3)cc1 [Example 261, (S)-2-(tert-butoxy)-2-(2-(3,4-difluorobenzol)-4,7-dimethyl-6-(p-tolyl)isoindolin-5-yl)acetic acid] | 4 nM |

| Compound | IC50 |
| --- | --- |
| Cc1ccc(-c2c(C)c3c(c(C)c2[C@H](OC(C)(C)C)C(=O)O)CN(C(=O)c2cc(F)ccc2F)C3)cc1 [Example 262, (S)-2-(tert-butoxy)-2-(2-(2,5-difluorobenzoyl)-4,7-dimethyl-6-(p-tolyl)isoindolin-5-yl)acetic acid] | 5 nM |
| Cc1ccc(-c2c(C)c3c(c(C)c2[C@H](OC(C)(C)C)C(=O)O)CN(C(=O)c2cc(Cl)ccc2C)C3)cc1 [Example 263, (S)-2-(tert-butoxy)-2-(2-(5-chloro-2-methylbenzoyl)-4,7-dimethyl-6-(p-tolyl)isoindolin-5-yl)acetic acid] | 6 nM |
| Cc1ccc(-c2c(C)c3c(c(C)c2[C@H](OC(C)(C)C)C(=O)O)CN(C(=O)c2ccc(Cl)c(F)c2)C3)cc1 [Example 264, (S)-2-(tert-butoxy)-2-(2-(4-chloro-3-fluorobenzoyl)-4,7-dimethyl-6-(p-tolyl)isoindolin-5-yl)acetic acid] | 9 nM |
| Cc1ccc(-c2c(C)c3c(c(C)c2[C@H](OC(C)(C)C)C(=O)O)CN(C(=O)c2ccc4c(c2)OCO4)C3)cc1 [Example 265, (S)-2-(2-(benzo[d][1,3]dioxole-5-carbonyl)-4,7-dimethyl-6-(p-tolyl)isoindolin-5-yl)-2-(tert-butoxy)acetic acid] | 4 nM |
| Cc1ccc(-c2c(C)c3c(c(C)c2[C@H](OC(C)(C)C)C(=O)O)CN(C(=O)c2cc(F)cc(C(N)=O)c2)C3)cc1 [Example 266, (S)-2-(tert-butoxy)-2-(2-(3-carbamoyl-5-fluorobenzoyl)-4,7-dimethyl-6-(p-tolyl)isoindolin-5-yl)acetic acid] | 126 nM |
| Cc1ccc(-c2c(C)c3c(c(C)c2[C@H](OC(C)(C)C)C(=O)O)CN(C(=O)c2cc(F)cc(C(=O)O)c2)C3)cc1 [Example 267, (S)-3-(5-(tert-butoxy(carboxy)methyl)-4,7-dimethyl-6-(p-tolyl)isoindoline-2-carbonyl)-5-fluorobenzoic acid] | 3460 nM |
| Cc1ccc(-c2c(C)c3c(c(C)c2[C@H](OC(C)(C)C)C(=O)O)CN(C(=O)c2cccnc2)C3)cc1 [Example 268, (S)-2-(tert-butoxy)-2-(4,7-dimethyl-2-nicotinoyl-6-(p-tolyl)isoindolin-5-yl)acetic acid] | 14 nM |
| Cc1ccc(-c2c(C)c3c(c(C)c2[C@H](OC(C)(C)C)C(=O)O)CN(C(=O)c2cncs2)C3)cc1 [Example 269, (S)-2-(tert-butoxy)-2-(4,7-dimethyl-2-(thiazole-5-carbonyl)-6-(p-tolyl)isoindolin-5-yl)acetic acid] | 116 nM |
| Cc1ccc(-c2c(C)c3c(c(C)c2[C@H](OC(C)(C)C)C(=O)O)CN(C(=O)c2ccc(Cl)cc2)C3)cc1 [Example 270, (S)-2-(tert-butoxy)-2-(2-(4-chlorobenzoyl)-4,7-dimethyl-6-(p-tolyl)isoindolin-5-yl)acetic acid] | 4 nM |
| Cc1ccc(-c2c(C)c3c(c(C)c2[C@H](OC(C)(C)C)C(=O)O)CN(C(=O)c2cc(Cl)cc(Cl)c2)C3)cc1 [Example 271, (S)-2-(tert-butoxy)-2-(2-(3,5-dichlorobenzoyl)-4,7-dimethyl-6-(p-tolyl)isoindolin-5-yl)acetic acid] | 8 nM |
| Cc1ccc(-c2c(C)c3c(c(C)c2[C@H](OC(C)(C)C)C(=O)O)CN(C(=O)c2cocn2)C3)cc1 [Example 272, (S)-2-(tert-butoxy)-2-(4,7-dimethyl-2-(oxazole-4-carbonyl)-6-(p-tolyl)isoindolin-5-yl)acetic acid] | 86 nM |
| Cc1ccc(-c2c(C)c3c(c(C)c2[C@H](OC(C)(C)C)C(=O)O)CN(C(=O)c2ccccn2)C3)cc1 [Example 273, (S)-2-(tert-butoxy)-2-(4,7-dimethyl-2-picolinoyl-6-(p-tolyl)isoindolin-5-yl)acetic acid] | 4 nM |
| Cc1ccc(-c2c(C)c3c(c(C)c2[C@H](OC(C)(C)C)C(=O)O)CN(C(=O)c2cnc(-c4ccccc4)o2)C3)cc1 [Example 274, (S)-2-(tert-butoxy)-2-(4,7-dimethyl-2-(2-phenyloxazole-5-carbonyl)-6-(p-tolyl)isoindolin-5-yl)acetic acid] | 297 nM |
| Cc1ccc(-c2c(C)c3c(c(C)c2[C@H](OC(C)(C)C)C(=O)O)CN(C(=O)c2cccc4c2OCO4)C3)cc1 [Example 275, (S)-2-(2-(benzo[d][1,3]dioxole-4-carbonyl)-4,7-dimethyl-6-(p-tolyl)isoindolin-5-yl)-2-(tert-butoxy)acetic acid] | 5 nM |
| Cc1ccc(-c2c(C)c3c(c(C)c2[C@H](OC(C)(C)C)C(=O)O)CN(C(=O)c2ccc(Cl)c(Cl)c2)C3)cc1 [Example 276, (S)-2-(tert-butoxy)-2-(2-(3,4-dichlorobenzoyl)-4,7-dimethyl-6-(p-tolyl)isoindolin-5-yl)acetic acid] | 16 nM |

same assay, conditions: MT-4 cells; luciferase/cell titer glo readout after 96 hours; 10 point dose response

| Compound | IC50 |
| --- | --- |
| COC1CCCC(C(=O)N2Cc3c(C)c(-c4ccc(C)cc4)c([C@H](OC(C)(C)C)C(=O)O)c(C)c3C2)C1 (stereo partly drawn) [Example 245, (2S)-2-(tert-butoxy)-2-(2-(3-methoxycyclohexanecarbonyl)-4,7-dimethyl-6-(p-tolyl)isoindolin-5-yl)acetic acid] | 26 nM |
